Assay results reported in PubChem BioAssay AID1919013 (Molecular Pharmacology Branch, DTP, NCI, 2023).
Each block holds one compound with its values, some of them ahead of it.

System: LG0703-F498-PDC complex spheroid growth
Experiment: Anticancer human tumor LG0703-F498-PDC patient-derived lung adenocarcinoma cell line growth inhibition [AhR]
Settings: for IC50: curve of first compound; for viability, T/C: stronger effect = lower value
From the text: Multicellular complex tumor spheroid response to aryl hydrocarbon receptor antagonists in combination with a variety of drugs and investigational agents in selected tumor cell lines
The current study was undertaken to assess response to aryl hydrocarbon receptor antagonists in combination with standard-of-care drugs and investigational agents in solid tumor complex spheroid models. Complex spheroids include a stromal component modeled by human endothelial cells (HUVEC) and fibroblasts modeled by human mesenchymal stem cells (MSCs). The concentration ranges selected for each drug and investigational agent were based upon clinically achievable concentrations if the clinical Cmax of the agent was known.
Compounds. The drugs and investigational agents: BAY 2416964 (NSC825713), GNF351 (NSC835774), CH-223191 (NSC835775), CPI-455 (NSC825282), aza-TdCyd (NSC777586), decitabine (NSC127716), belinostat (NSC758774), entinostat (NSC756642), pevonedistat (NSC761192), tazemetostat (NSC777109), talazoparib (NSC765396), olaparib (NSC753686), selinexor (NSC780203), nedisertib (M3814, NSC802822), bortezomib (NSC756655), venetoclax (NSC766270), doxorubicin (NSC123127), elimusertib (BAY189344, NSC800525), ceralasertib (AZD6738, NSC777638), TAK-243 (NSC785004), alisertib (NSC759677), etoposide (NSC141540), topotecan (NSC609699), eribulin (NSC707389), gemcitabine (NSC613327), carboplatin (NSC241240), cisplatin (NSC119875), and SN-38 (NSC673596) were obtained from the National Cancer Institute (NCI) Developmental Therapeutics Program Chemical Repository (32). The FDA-approved anticancer drug set is available from the Developmental Therapeutics Program at https://dtp.cancer.gov/organization/dscb/obtaining/available plates.htm. […] The stock solutions were prepared in dimethyl sulfoxide (DMSO, Sigma-Aldrich, St. Louis, MO, cat. D2650), except for the platinum compounds which were prepared in saline (Quality Biological, Gaithersburg, MD, cat. 114-055-101), at 800-fold the tested concentration and stored at -70 degrees C prior to their use. All drugs and investigational agents were tested over a range starting from a high concentration at or near the clinical Cmax and decreasing in half-log increments. If the clinical Cmax for an agent had not been determined, the highest concentration tested was 10 microM (Table 1).
Cell Culture. All cells were maintained in an incubator at 37 degrees C and 5% CO2 with 95% humidity. The PDC lines were cultured according to standard operating procedures established by the NCI PDMR (https://pdmr.cancer.gov). Briefly, all PDCs were thawed and cultured in Matrigel-coated flasks prepared with a working solution of 1X Ham's F-12 nutrient mix, without supplementation (Invitrogen, Waltham, MA, cat. 11765054), 100 U/mL penicillin-streptomycin (Invitrogen, cat. 15140122), and 2.5% Matrigel (Corning Inc., Corning, NY, cat. 354248) for the first three passages. All PDCs were cultured in complete DMEM/F-12 media containing advanced DMEM/F-12 (Invitrogen, cat. 12634028), 4.9% defined fetal bovine serum, heat inactivated (HyClone Laboratories Inc., Logan, UT, cat. SH30070.03HI), 389 ng/mL hydrocortisone (Sigma-Aldrich, cat. H4001), 9.7 ng/mL human EGF recombinant protein (Invitrogen, cat. PHG0313), 23.4 microg/mL adenine (Sigma-Aldrich, cat. A2786), 97.3 U/mL penicillin-streptomycin (Invitrogen, cat. 15140122), 1.9 mM L-glutamine (Invitrogen, cat. 25030081), and 9.7 microM Y-27632 dihydrochloride (Tocris Bioscience, Bristol, United Kingdom, cat. 1254). The PDCs were cultured in complete DMEM/F12 media without 10 microM Y-27632 dihydrochloride for at least two passages prior to the screen. The established cell lines NCI-H1341 and […] were cultured in DMEM/F-12, HEPES (Invitrogen, cat. 11330032), 5% defined fetal bovine serum (HyClone Laboratories Inc., cat. SH30070.03), ITS premix universal culture supplement [insulin (5 microg/mL), transferrin (5 microg/mL), and selenious acid (5 ng/mL)] […]

[1] = second compound 0.1 µM, first compound 0.0316 µM
[2] = second compound 0.1 µM, first compound 0.1 µM
[3] = second compound 0.1 µM, first compound 0.316 µM
[4] = second compound 0.1 µM, first compound 1 µM
[5] = second compound 0.1 µM, first compound 3.16 µM
[6] = second compound 0.1 µM, first compound 10 µM
[7] = second compound 0.316 µM, first compound 0.0316 µM
[8] = second compound 0.316 µM, first compound 0.1 µM
[9] = second compound 0.316 µM, first compound 0.316 µM
[10] = second compound 0.316 µM, first compound 1 µM
[11] = second compound 0.316 µM, first compound 3.16 µM
[12] = second compound 0.316 µM, first compound 10 µM
[13] = second compound 1 µM, first compound 0.0316 µM
[14] = second compound 1 µM, first compound 0.1 µM
[15] = second compound 1 µM, first compound 0.316 µM
[16] = second compound 1 µM, first compound 1 µM
[17] = second compound 1 µM, first compound 3.16 µM
[18] = second compound 1 µM, first compound 10 µM
[19] = second compound 3.16 µM, first compound 0.0316 µM
[20] = second compound 3.16 µM, first compound 0.1 µM
[21] = second compound 3.16 µM, first compound 0.316 µM
[22] = second compound 3.16 µM, first compound 1 µM
[23] = second compound 3.16 µM, first compound 3.16 µM
[24] = second compound 3.16 µM, first compound 10 µM
[25] = second compound 10 µM, first compound 0.0316 µM
[26] = second compound 10 µM, first compound 0.1 µM
[27] = second compound 10 µM, first compound 0.316 µM
[28] = second compound 10 µM, first compound 1 µM
[29] = second compound 10 µM, first compound 3.16 µM
[30] = second compound 10 µM, first compound 10 µM
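Further: luminescence taken as a proxy for viable cell amount.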
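Wherever viability, T/C is given: percent of DMSO vehicle control where 100% means growth equal to vehicle.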

IC50 (second compound 0.1 µM): 2.38 nM
IC50 (second compound 0.316 µM): 2.52 nM
IC50 (second compound 1 µM): 2.12 nM
IC50 (second compound 3.16 µM): 2.09 nM
IC50 (second compound 10 µM): 1.88 nM
SMILES: CC(C)CC(NC(=O)C(Cc1ccccc1)NC(=O)c1cnccn1)B(O)O (stereo not given) + CC(CO)NC(=O)c1cc(-c2ccc(Cl)cc2)nn(-c2cnn(C)c2)c1=O
viability, T/C (second compound 0.1 µM, first compound 0.000949 µM): 76.8%
viability, T/C (second compound 0.1 µM, first compound 0.003 µM): 43.2%
viability, T/C (second compound 0.1 µM, first compound 0.00949 µM): 1.95%
viability, T/C (second compound 0.1 µM, first compound 0.03 µM): 0.49%
viability, T/C (second compound 0.1 µM, first compound 0.0949 µM): 0.12%
viability, T/C (second compound 0.1 µM, first compound 0.3 µM): 0.2%
viability, T/C (second compound 0.316 µM, first compound 0.000949 µM): 80%
viability, T/C (second compound 0.316 µM, first compound 0.003 µM): 44.7%
viability, T/C (second compound 0.316 µM, first compound 0.00949 µM): 3.04%
viability, T/C (second compound 0.316 µM, first compound 0.03 µM): 0.34%
viability, T/C (second compound 0.316 µM, first compound 0.0949 µM): 0.17%
viability, T/C (second compound 0.316 µM, first compound 0.3 µM): 0.17%
viability, T/C (second compound 1 µM, first compound 0.000949 µM): 75.9%
viability, T/C (second compound 1 µM, first compound 0.003 µM): 38.8%
viability, T/C (second compound 1 µM, first compound 0.00949 µM): 2.08%
viability, T/C (second compound 1 µM, first compound 0.03 µM): 0.36%
viability, T/C (second compound 1 µM, first compound 0.0949 µM): 1.04%
viability, T/C (second compound 1 µM, first compound 0.3 µM): 0.16%
viability, T/C (second compound 3.16 µM, first compound 0.000949 µM): 78%
viability, T/C (second compound 3.16 µM, first compound 0.003 µM): 37.3%
viability, T/C (second compound 3.16 µM, first compound 0.00949 µM): 1.6%
viability, T/C (second compound 3.16 µM, first compound 0.03 µM): 0.13%
viability, T/C (second compound 3.16 µM, first compound 0.0949 µM): 0.63%
viability, T/C (second compound 3.16 µM, first compound 0.3 µM): 1.52%
viability, T/C (second compound 10 µM, first compound 0.000949 µM): 71.2%
viability, T/C (second compound 10 µM, first compound 0.003 µM): 35.5%
viability, T/C (second compound 10 µM, first compound 0.00949 µM): 1.37%
viability, T/C (second compound 10 µM, first compound 0.03 µM): 0.23%
viability, T/C (second compound 10 µM, first compound 0.0949 µM): 0.25%
viability, T/C (second compound 10 µM, first compound 0.3 µM): 0.21%

IC50 (second compound 0.1 µM): 6880 nM
IC50 (second compound 0.316 µM): 8340 nM
IC50 (second compound 1 µM): 5110 nM
IC50 (second compound 3.16 µM): 4360 nM
IC50 (second compound 10 µM): 3250 nM
SMILES: COc1cc(Nc2ncc3c(n2)-c2ccc(Cl)cc2C(c2c(F)cccc2OC)=NC3)ccc1C(=O)O + CC(CO)NC(=O)c1cc(-c2ccc(Cl)cc2)nn(-c2cnn(C)c2)c1=O
viability, T/C [1]: 87.2%
viability, T/C [2]: 88.2%
viability, T/C [3]: 78.5%
viability, T/C [4]: 71%
viability, T/C [5]: 61.7%
viability, T/C [6]: 44.4%
viability, T/C [7]: 94.9%
viability, T/C [8]: 79.2%
viability, T/C [9]: 78.9%
viability, T/C [10]: 70.2%
viability, T/C [11]: 56.3%
viability, T/C [12]: 48.8%
viability, T/C [13]: 91.6%
viability, T/C [14]: 96.2%
viability, T/C [15]: 75.1%
viability, T/C [16]: 68.2%
viability, T/C [17]: 56.4%
viability, T/C [18]: 42.7%
viability, T/C [19]: 91.6%
viability, T/C [20]: 75.2%
viability, T/C [21]: 70.7%
viability, T/C [22]: 63.9%
viability, T/C [23]: 50.3%
viability, T/C [24]: 44.5%
viability, T/C [25]: 92%
viability, T/C [26]: 77.4%
viability, T/C [27]: 65%
viability, T/C [28]: 65%
viability, T/C [29]: 52.7%
viability, T/C [30]: 37.6%

IC50 (second compound 0.1 µM): 607 nM
IC50 (second compound 0.316 µM): 636 nM
IC50 (second compound 1 µM): 667 nM
IC50 (second compound 3.16 µM): 690 nM
IC50 (second compound 10 µM): 727 nM
SMILES: O=C(C=Cc1cccc(S(=O)(=O)Nc2ccccc2)c1)NO + CC(CO)NC(=O)c1cc(-c2ccc(Cl)cc2)nn(-c2cnn(C)c2)c1=O
viability, T/C [1]: 106%
viability, T/C [2]: 112%
viability, T/C [3]: 77.3%
viability, T/C [4]: 28.5%
viability, T/C [5]: 7%
viability, T/C [6]: 1.6%
viability, T/C [7]: 105%
viability, T/C [8]: 101%
viability, T/C [9]: 77%
viability, T/C [10]: 32.4%
viability, T/C [11]: 7.34%
viability, T/C [12]: 1.04%
viability, T/C [13]: 102%
viability, T/C [14]: 106%
viability, T/C [15]: 77.8%
viability, T/C [16]: 34.6%
viability, T/C [17]: 8.18%
viability, T/C [18]: 1.73%
viability, T/C [19]: 105%
viability, T/C [20]: 108%
viability, T/C [21]: 74.4%
viability, T/C [22]: 39%
viability, T/C [23]: 7.73%
viability, T/C [24]: 1.63%
viability, T/C [25]: 101%
viability, T/C [26]: 121%
viability, T/C [27]: 81.8%
viability, T/C [28]: 37.6%
viability, T/C [29]: 8.76%
viability, T/C [30]: 1.23%
